According to patent US20170311605A1, “SYNERGISTIC BACILLUS THURINGIENSIS SUBSP. AIZAWAI AND FLUBENDIAMIDE MIXTURES FOR DIAMONDBACK MOTH, BEET ARMYWORM, SOYBEAN LOOPER, CORN EARWORM, AND SUGARCANE BORER CONTROL” (Valent BioSciences LLC, priority 2016, published 2017):
Read-outs that look alike come from different tables or passages of the source.

Assays:
[1] = test system: corn earworm larvae; test: leaf dip test, corn earworm larvae; type: in vivo; details: Helicoverpa zea, foliar, Bta 27 ppm, flubendiamide 0.975 ppm, mixture 27 ppm + 0.975 ppm, read-out: % Efficacy
Protocol: (§1) The following examples illustrate the synergy of Bacillus thuringiensis subsp. aizawai and flubendiamide when controlling diamondback moth, beet armyworm, soybean looper, corn earworm, and sugarcane borer. Xentari® was used as the source of Bacillus thuringiensis subsp. aizawai and Belt® was used as the source of flubendiamide. The present invention is not limited to the products or formulation types used herein. In each example below, the studies were conducted as follows.
(§2) For these tests, standardized laboratory leaf dip methods were used to inoculate plant material with treatment(s). Dry, treated leaves were placed into Petri dishes (100×25 mm) containing filter paper wetted with 500 μl of distilled H2O (“dH2O”). Each dish was then infested with between 5 and 10 larvae, dependent on species. Efficacy ratings were taken at specified intervals. Synergy ratings were calculated for each test.
(§3) % Cexp=A+B−(AB/100), where % Cexp is the expected efficacy and “in which A and B are the control levels given by the single [insecticides]. […] Adopting a conservative approach, Applicant determined synergy to be present at ratios of ≧1.15. […]

[2] = test system: southwestern corn borer larvae; test: leaf dip test, southwestern corn borer larvae; type: in vivo; details: foliar, Bta 2.7 ppm, flubendiamide 0.39 ppm, mixture 2.7 ppm + 0.39 ppm, read-out: % Efficacy
[3] = test system: cabbage looper larvae; test: leaf dip test, cabbage looper larvae; type: in vivo; details: Trichoplusia ni, foliar, Bta 2.7 ppm, flubendiamide 0.49 ppm, mixture 2.7 ppm + 0.49 ppm, read-out: % Efficacy
[4] = test system: beet armyworm larvae; test: leaf dip test, beet armyworm larvae; type: in vivo; details: Spodoptera exigua, foliar, Bta 2.7 ppm, flubendiamide 0.49 ppm, mixture 2.7 ppm + 0.49 ppm, read-out: % Efficacy
Protocol: as §1, §2, §3

[5] = test system: soybean looper larvae; test: leaf dip test, soybean looper larvae; type: in vivo, Chrysodeixis includens; details: foliar, Bta 27 ppm, flubendiamide 3.9 ppm, mixture 27 ppm + 3.9 ppm, read-out: % Efficacy
Protocol: as §1, §2, §3

[6] = test system: sugarcane borer larvae; test: leaf dip test, sugarcane borer larvae; type: in vivo; details: Diatraea saccharalis, foliar, Bta 27 ppm, flubendiamide 2.15 ppm, mixture 27 ppm + 2.15 ppm, read-out: % Efficacy
Protocol: as §1, §2, §3

[7] = test system: diamondback moth larvae; test: leaf dip test, diamondback moth larvae; type: in vivo; details: Plutella xylostella, foliar, Bta 2.7 ppm, flubendiamide 0.215 ppm, mixture 2.7 ppm + 0.215 ppm, read-out: % Efficacy
Protocol: as §1
For these tests, standardized laboratory leaf dip methods were used to inoculate plant material with treatment(s). Dry, treated leaves were placed into Petri dishes (100×25 mm) containing filter paper wetted with 500 μl of distilled H2O (“dH2O”). […] Synergy ratings were calculated for each test. […]
as §3
In order to determine synergy, rates below normal field rate ranges must be used. If normal field rate ranges are used, all of the larvae would die (combining a lethal or near lethal dose of Bacillus thuringiensis subsp. aizawai with a lethal dose of flubendiamide would most likely lead to larvae death) in every treatment and synergy would not be able to be determined. […]

`Cc1cc(C(F)(C(F)(F)F)C(F)(F)F)ccc1NC(=O)c1cccc(I)c1C(=O)NC(C)(C)CS(C)(=O)=O` [Flubendiamide, 3-iodo-N′-(2-mesyl-1,1-dimethylethyl)-N-{4-[1,2,2,2-tetrafluoro-1-(trifluoromethyl)ethyl]-o-tolyl}phthalamide] gave an Emax at 0.975 ppm ([1]; 24 h after treatment) of 16%, an Emax at 0.975 ppm ([1]; 48 h after treatment) of 29% and an Emax at 0.39 ppm ([2]; 24 h after treatment) of 40%. For the same molecule, the Emax at 0.39 ppm ([2]; 48 h after treatment) was 49%, the Emax at 0.49 ppm ([3]; 24 h after treatment) was 4% and the Emax at 0.49 ppm ([3]; 48 h after treatment) was 21%. For the same molecule, the Emax at 0.49 ppm ([4]; 24 h after treatment) was 12%, the Emax at 0.49 ppm ([4]; 48 h after treatment) was 26% and the Emax at 3.9 ppm ([5]; 24 h after treatment) was 3%. For the same molecule, the Emax at 3.9 ppm ([5]; 48 h after treatment) was 20%, the Emax at 2.15 ppm ([6]; 24 h after treatment) was 44% and the Emax at 2.15 ppm ([6]; 48 h after treatment) was 68%. It also gave an Emax at 0.215 ppm ([7]; 24 h after treatment) of 11% and an Emax at 0.215 ppm ([7]; 48 h after treatment) of 25%.
